Test results published in ChEMBL document CHEMBL3244235, “Relationships between opiate receptor binding and analgetic properties of prodine-type compounds” (1977).
Activity calls are given as the source filed them. The rule behind the calls is not given here.

Key:
Mus musculus = assay: Analgesic activity in sc dosed mouse by hot plate method; type: functional
[1] = molecular target: T1, Opioid receptor (Rattus norvegicus) (UniProt P33533+P34975+P33535); assay: Displacement of nonspecific [3H]dihydromorphine from opiate receptor in rat brain homogenates at 10^-5 M after 10 mins by scintillation counting; type: tissue-based
[2] = molecular target: T1, Opioid receptor (Rattus norvegicus); assay: Displacement of specific [3H]dihydromorphine from opiate receptor in rat brain homogenates at 10^-5 M after 10 mins by scintillation counting; type: tissue-based

T1 sequence (P33533 whole entry, looked up): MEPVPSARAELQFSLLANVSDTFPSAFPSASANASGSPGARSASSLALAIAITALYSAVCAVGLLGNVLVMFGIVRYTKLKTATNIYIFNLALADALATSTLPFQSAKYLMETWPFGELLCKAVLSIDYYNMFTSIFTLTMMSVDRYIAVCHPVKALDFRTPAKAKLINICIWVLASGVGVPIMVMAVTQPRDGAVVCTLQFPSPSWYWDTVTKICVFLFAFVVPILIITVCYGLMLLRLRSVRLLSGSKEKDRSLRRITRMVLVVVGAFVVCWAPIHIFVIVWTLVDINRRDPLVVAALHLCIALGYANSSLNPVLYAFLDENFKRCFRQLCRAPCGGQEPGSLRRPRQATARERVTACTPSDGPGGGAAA
T1 sequence (P33535 whole entry, looked up): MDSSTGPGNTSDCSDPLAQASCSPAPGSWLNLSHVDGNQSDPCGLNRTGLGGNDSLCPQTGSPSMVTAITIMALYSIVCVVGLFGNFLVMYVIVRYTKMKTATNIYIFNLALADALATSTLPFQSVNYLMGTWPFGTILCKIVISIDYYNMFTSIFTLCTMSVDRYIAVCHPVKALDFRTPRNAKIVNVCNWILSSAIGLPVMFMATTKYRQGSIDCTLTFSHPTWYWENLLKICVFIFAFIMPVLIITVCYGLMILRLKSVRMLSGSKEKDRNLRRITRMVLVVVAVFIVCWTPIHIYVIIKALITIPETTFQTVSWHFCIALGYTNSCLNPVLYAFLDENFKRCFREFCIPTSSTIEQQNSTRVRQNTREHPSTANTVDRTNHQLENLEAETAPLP
T1 sequence (P34975 whole entry, looked up): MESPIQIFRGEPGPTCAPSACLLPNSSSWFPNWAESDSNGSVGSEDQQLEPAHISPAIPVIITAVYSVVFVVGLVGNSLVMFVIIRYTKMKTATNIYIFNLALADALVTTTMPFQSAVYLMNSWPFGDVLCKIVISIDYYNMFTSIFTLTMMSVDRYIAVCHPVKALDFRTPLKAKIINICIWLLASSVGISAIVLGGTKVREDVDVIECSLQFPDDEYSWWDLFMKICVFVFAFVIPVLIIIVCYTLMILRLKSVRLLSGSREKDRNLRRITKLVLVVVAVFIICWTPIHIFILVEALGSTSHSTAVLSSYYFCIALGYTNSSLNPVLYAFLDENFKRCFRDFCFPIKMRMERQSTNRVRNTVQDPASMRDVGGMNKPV

Row | Structure (SMILES) | ED50 (Mus musculus) [mg/kg] | inhibition [1] | inhibition [2]
1 | C=CCC1CN(C)CCC1(OC(=O)CC)c1ccccc1.Cl (configuration not stated) | 0.03 | – | –
2 | CCC(=O)O[C@]1(c2ccccc2)CCN(C)C[C@@H]1CC.Cl (relative stereo) | 0.4 | – | –
3 | CCC(=O)O[C@]1(c2ccccc2)CCN(C)C[C@@H]1C.Cl (relative stereo) | 0.92 | – | –
4 | CCC(=O)O[C@]1(c2ccccc2)CCN(C)C[C@H]1C.Cl (relative stereo) | 0.18 | – | –
5 | CCC(=O)O[C@]1(c2ccccc2)CCN(C)C[C@H]1CC.Cl (relative stereo) | 3.5 | – | –
6 | C=CC[C@H]1CN(C)CC[C@]1(OC(=O)CC)c1ccccc1.Cl (relative stereo) | 0.09 | – | –
7 | C=CC[C@@H]1CN(C)CC[C@]1(OC(=O)CC)c1ccccc1.Cl (relative stereo) | 11.7 | – | –
8 | CCCCCC[C@H]1CN(C)CC[C@]1(OC(=O)CC)c1ccccc1.Cl (relative stereo) | 80 | Active | Active
9 | CCCCCC[C@@H]1CN(C)CC[C@]1(OC(=O)CC)c1ccccc1.Cl (relative stereo) | 54.4 | – | –
10 | CN1CC[C@]23c4c5ccc(O)c4O[C@H]2[C@@H](O)C=C[C@H]3[C@H]1C5.Cl [MORPHINE HYDROCHLORIDE] | 1.2 | – | –
